The subject of assay [1] is stimulated primary human T cells. The assay can be described thus: T cell proliferation assay, Condition B (X-VIVO15, 2% HSA and 0.1% AAG). It is filed as cell-based. The conditions noted are these: Homo sapiens, T-cell, 96 h; Condition B: X-VIVO15 medium containing HSA and α1-Acid Glycoprotein; anti-CD3/anti-CD28 beads, ATP, 4 days; CFSE-lo T cells. The procedure: (§1) The goal of this study was to determine the potency of ENT1 inhibitors by measuring the rescued proliferation of stimulated primary human T cells incubated in the presence of 100 uM Adenosine triphosphate (ATP), in baseline conditions (condition A) or in the presence of various proteins known to bind small molecules (condition B).
Condition B: X-VIVO15, 2% Human Serum Albumin (HSA) and 0.1% α-1-Acid Glycoprotein (AAG)
(§2) Venous blood from healthy volunteers, all of whom signed an informed consent approved by the Ethics Committee (FOR—UIC—BV-050-01-01 ICF_HBS_HD Version 5.0), was obtained by ImmuneHealth (Centre Hospitalier Universitaire Tivoli, La Louviere, Belgium). Mononuclear cells were collected by density gradient centrifugation, using SepMate-50 tubes (StemCell Technologies, Grenoble, France) and Lymphoprep (Stemcell Technologies) according to the manufacturer's instructions. CD3+ T cells were isolated by immunomagnetic negative selection, using the EasySep Human T Cell Isolation Kit (StemCell Technologies) as per the manufacturer's instructions. CD3+ T cells were stored in heat inactivated FBS (hiFBS; Gibco, ThermoFisher Scientific, Merelbeke, Belgium) and 10% DMSO in liquid nitrogen.
(§3) Purified human CD3+ T cells were thawed and washed once with RPMI1640 medium, UltraGlutamine (Lonza, Verviers, Belgium) containing 10% hiFBS. Cells were resuspended in PBS containing 10% hiFBS at 1×10^7 cells/ml. One volume of cells was combined with a matching volume of 2 μM CFSE solution in PBS, mixed well by pipetting, and incubated at room temperature for 5 minutes under rotation and protected from light. Excess CFSE was quenched by addition of PBS containing 10% hiFBS, and the cells were centrifuged (300×rcf, 7 minutes) and resuspended in X-VIVO15. Cells were again centrifuged and resuspended in X-VIVO15 for counting.
(§4) Cells were resuspended at 1.6×10^6 cells/mL in X-VIVO15 medium (Condition A) or X-VIVO15 medium containing 4% (v/v) HSA (Sigma-Aldrich, Diegem, Belgium) and 0.2% (v/v) ai-Acid Glycoprotein (Sigma-Aldrich, Diegem, Belgium) (Condition B).
(§5) […] of cell suspension (2×10^4 cells) was added to wells of sterile flat-bottom 384-well plates. Cells were activated by adding […] of anti-CD3 anti-CD28 coated microbeads (Dynabeads human T-activator CD3/CD28; Life Technologies, Paisley, UK) suspended in X-VIVO15 medium or X-VIVO15 medium containing 4% (v/v) HSA and 0.2% (v/v) ai-Acid Glycoprotein at a ratio of one microbead per two cells. Serial dilutions of the ENT1 inhibitors were conducted in X-VIVO15 medium and […] of the diluent was added to the wells. Cells were mixed by pipetting up and down and pre-incubated for 30 minutes in a 37° C. humidified tissue culture incubator with 5% CO2. After pre-incubation, cells were cultured in the presence or absence of ATP (Sigma-Aldrich) at a final concentration of […]. The final well volume was 50 μl in all cases. Experiments were performed in biological duplicates. Cells were mixed by pipetting up and down and incubated for 4 days in a 37° C. humidified tissue culture incubator with 5% CO2.
(§6) Samples were run on a BD LSR Fortessa FACS machine (BD FACSDiva Software v9.0.1). Data were analyzed using FlowJo (BD, v10.7.1). T cell proliferation was determined by measuring the frequency of ‘CFSE^lo’ (i.e. CFSE-diluted).
(§7) T cell proliferation data were analyzed using FlowJo software (Version 10.6.2). Dead cells and cellular debris were excluded on the basis of forward and side scatter profile and singlet cells were selected for further analysis.
(§8) T cell proliferation was determined based on the percent CFSE^lo total T cells for each condition. The data were plotted on the y-axis against log molar (M) concentration of ENT1 inhibitors on the x-axis in GraphPad Prism (version 9.0.0). IC50 and IC90 values were generated with the ‘log(agonist) vs. response—Find ECanything(F))’ function with F constrained to 50 or 90, respectively. pICF values were generated by taking the −logECF values.

Another assay has as its target T1, human ENT1 (Homo sapiens, UniProt Q99808).
T1 construct: JAR cells expressing ENT1 were purchased from ATCC; host or cells: JAR cells
T1 sequence (Q99808 1-456): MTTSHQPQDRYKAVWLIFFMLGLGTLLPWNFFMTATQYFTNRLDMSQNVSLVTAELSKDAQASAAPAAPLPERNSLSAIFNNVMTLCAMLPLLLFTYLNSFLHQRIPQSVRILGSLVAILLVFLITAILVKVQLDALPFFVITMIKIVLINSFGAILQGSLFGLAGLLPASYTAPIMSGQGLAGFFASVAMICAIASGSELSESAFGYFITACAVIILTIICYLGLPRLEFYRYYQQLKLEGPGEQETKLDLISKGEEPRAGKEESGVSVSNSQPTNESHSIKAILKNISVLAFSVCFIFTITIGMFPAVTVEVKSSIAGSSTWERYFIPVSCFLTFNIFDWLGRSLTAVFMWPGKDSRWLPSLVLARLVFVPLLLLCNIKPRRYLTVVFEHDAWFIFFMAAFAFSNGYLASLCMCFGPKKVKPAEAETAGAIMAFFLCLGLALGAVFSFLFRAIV
In words: ENT1 binding assay (competition with Sahenta-DY647 on JAR cells). The conditions noted are these: competition with SAHENTA-DY647 binding; IC50 categorized; read-out: Binding Assay IC50. Summed up: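 Whole-cell competition on JAR cells (native ENT1): 50,000 cells pre-incubated 30 min at 4 °C with compound in HBSS/10 mM Hepes/0.1% BSA, then 100 nM Sahenta-DY647 added for 30 min at 4 °C. After washing, fluorescence (Ex 630/Em 670 nm) read; IC50 from sigmoidal fit, averaged as pIC50.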

Assay [2] relates to stimulated primary human T cells. The assay can be described thus: T cell proliferation assay, Condition A (X-VIVO15). The conditions noted are these: Homo sapiens, T-cell, 96 h; Condition A: X-VIVO15 medium; anti-CD3/anti-CD28 beads, ATP, 4 days; CFSE-lo T cells. It is filed as cell-based. Here is the method: as §1, §2, §3, §4, §5, §6, §7, §8

A value given as a limit tells only on which side of the number the result lay.

For the compound `C[C@H]1O[C@@H](n2c(NC3CCOCC3)nc3c(OCc4ccc([N+](=O)[O-])cc4)ncnc32)[C@H](O)[C@@H]1O` [Compound 30], the IC50 was 1 to 20 nM in assay [1], less than 1 nM at human ENT1 and less than 1 nM in assay [2].
Turning to `C[C@H]1O[C@@H](n2c(NCC3CCOC3)nc3c(OCc4ccc(OC(F)F)cc4)ncnc32)[C@H](O)[C@@H]1O` (stereo partly drawn) [Compound 112], the IC50 in assay [1] was 20 to 500 nM; at human ENT1, 1 to 20 nM; in assay [2], less than 1 nM.
Consider `C[C@H]1O[C@@H](n2c(NC3CCC(O)C3)nc3c(OCc4ccc([N+](=O)[O-])cc4)ncnc32)[C@H](O)[C@@H]1O` (stereo partly drawn) [Compound 29], for which the figures for the half-maximal inhibitory concentration (IC50) (in assay [1]; at human ENT1; in assay [2]) were 1 to 20 nM, less than 1 nM and less than 1 nM, respectively.
`C[C@H]1O[C@@H](n2c(NC3CCCC3)nc3c(OCc4ccccc4)ncnc32)[C@H](O)[C@@H]1O` [Compound 5]: the results for the IC50 (in assay [1]; on human ENT1; in assay [2]) were 20 to 500 nM, 1 to 20 nM and 1 to 20 nM, respectively.
Turning to `O=[N+]([O-])c1ccc(CSc2ncnc3c2ncn3[C@@H]2O[C@H](CF)[C@@H](O)[C@H]2O)cc1` [Compound 159], the IC50 in assay [1] was greater than 500 nM; on human ENT1, 1 to 20 nM; in assay [2] it was 1 to 20 nM.
Turning to `C[C@H]1O[C@@H](n2c(NCC3CCOCC3)nc3c(OCc4ccc(OC(F)F)cc4)ncnc32)[C@H](O)[C@@H]1O` [Compound 113], the IC50 in assay [1] is 20 to 500 nM; on human ENT1 it was 1 to 20 nM; in assay [2] it was less than 1 nM.
For `C[C@H]1O[C@@H](n2c(NCCC3CCN(C)CC3)nc3c(OCc4ccc([N+](=O)[O-])cc4)ncnc32)[C@H](O)[C@@H]1O` [Compound 34] the same measures were 20 to 500 nM, 20 to 500 nM and 1 to 20 nM.
Consider `CCNc1nc2c(N3CCc4ccc([N+](=O)[O-])cc4C3)ncnc2n1[C@@H]1O[C@H](C)[C@@H](O)[C@H]1O` [Compound 150], for which the results for the IC50 (in assay [1]; at human ENT1; in assay [2]) were 20 to 500 nM, 1 to 20 nM and 1 to 20 nM, respectively.
Consider `C[C@H]1O[C@@H](n2cnc3c(SCc4ccc(OC(F)F)cc4)ncnc32)[C@H](O)[C@@H]1O` [Compound 176], for which the figures for the IC50 (in assay [1]; on human ENT1; in assay [2]) were greater than 500 nM, 20 to 500 nM and 1 to 20 nM, respectively.
For `C[C@H]1O[C@H](n2c(NCc3ccccc3)nc3c(OCc4ccc(OC(F)F)cc4)ncnc32)[C@H](O)[C@@H]1O` [Compound 8] the same measures were 20 to 500 nM, 1 to 20 nM and less than 1 nM.
On the same counts, the results for `C[C@H]1O[C@@H](n2c(OCc3ccccc3)nc3c(OCc4ccc([N+](=O)[O-])cc4)ncnc32)[C@H](O)[C@@H]1O` [Compound 2] are 20 to 500 nM, 1 to 20 nM and less than 1 nM.
`C[C@H]1O[C@@H](n2c(NCCCO)nc3c(OCc4ccc([N+](=O)[O-])cc4)ncnc32)[C@H](O)[C@@H]1O` [Compound 22]: the IC50 in assay [1] lay within 20 to 500 nM; on human ENT1 it was 1 to 20 nM; in assay [2], 1 to 20 nM.
In the case of `C[C@H]1O[C@@H](n2c(NCC3CC(F)(F)C3)nc3c(OCc4ccc(OC(F)F)nc4)ncnc32)[C@H](O)[C@@H]1O` [Compound 114], the IC50 in assay [1] is 20 to 500 nM; on human ENT1, 1 to 20 nM; in assay [2], less than 1 nM.
On the same counts, the results for `C[C@H]1O[C@@H](n2cnc3c(OCc4ccc(Cl)cc4)ncnc32)[C@H](O)[C@@H]1O` [Compound 187] are greater than 500 nM, 20 to 500 nM and 1 to 20 nM.
On the same counts, the results for `NC(=O)COC[C@H]1O[C@@H](n2cnc3c(OCCc4ccc([N+](=O)[O-])cc4)ncnc32)[C@H](O)[C@@H]1O` [Compound 199] are greater than 500 nM, 20 to 500 nM and 20 to 500 nM.
For `C[C@H]1O[C@@H](n2c(NC3CCOC3)nc3c(OCc4ccc([N+](=O)[O-])cc4)ncnc32)[C@H](O)[C@@H]1O` (stereo partly drawn) [Compound 18] the same measures were 1 to 20 nM, 1 to 20 nM and less than 1 nM.
In the case of `C[C@H]1O[C@@H](n2c(NC3CC(F)(F)C3)nc3c(OCc4ccc([N+](=O)[O-])cc4)ncnc32)[C@H](O)[C@@H]1O` [Compound 47], the IC50 in assay [1] is 20 to 500 nM; on human ENT1, 1 to 20 nM; in assay [2], less than 1 nM.
Consider `OC[C@H]1O[C@@H](n2cnc3c(OCc4ccc(OC(F)(F)F)cc4)nc(Cl)nc32)[C@H](O)[C@@H]1O` [Compound 156], for which the IC50 in assay [1] fell in the range of 20 to 500 nM; on human ENT1, 1 to 20 nM; in assay [2] it was 1 to 20 nM.
In the case of `C[C@H]1O[C@@H](n2c(NC3CCCC3)nc3c(OCc4ccc(OC(F)F)cc4)ncnc32)[C@H](O)[C@@H]1O` [Compound 11], the figures for the IC50 (in assay [1]; on human ENT1; in assay [2]) were 1 to 20 nM, less than 1 nM and less than 1 nM, respectively.
As to `C[C@H]1O[C@@H](n2cnc3c(N(C)Cc4ccc([N+](=O)[O-])cc4)ncnc32)[C@H](O)[C@@H]1O` [Compound 177], the half-maximal inhibitory concentration (IC50) in assay [1] is greater than 500 nM; on human ENT1 it was 20 to 500 nM; in assay [2], 20 to 500 nM.
On to `C[C@H]1O[C@@H](n2cnc3c(SCc4ccc(C#N)cc4)ncnc32)[C@H](O)[C@@H]1O` [Compound 165], for which the results for the IC50 (in assay [1]; at human ENT1; in assay [2]) were greater than 500 nM, 20 to 500 nM and 1 to 20 nM, respectively.
Regarding `C[C@H]1O[C@@H](n2c(N[C@@H]3CCOC3)nc3c(OCc4ccc(C#N)cc4)ncnc32)[C@H](O)[C@@H]1O` [Compound 77], the IC50 in assay [1] is 20 to 500 nM; at human ENT1 it was 1 to 20 nM; in assay [2], less than 1 nM.
For `C[C@H]1O[C@@H](n2c(NCC(F)(F)F)nc3c(OCc4ccc([N+](=O)[O-])cc4)ncnc32)[C@H](O)[C@@H]1O` [Compound 24] the same measures were 20 to 500 nM, 1 to 20 nM and 1 to 20 nM.
On the same counts, the results for `C[C@H]1O[C@@H](n2cnc3c(OCc4ccc(C(F)F)cc4)ncnc32)[C@H](O)[C@@H]1O` [Compound 182] are greater than 500 nM, 20 to 500 nM and 1 to 20 nM.

The record behind these values is patent US20260184712A1, “Heterocyclic Compounds as ENT Inhibitors and Compounds for Use in the Treatment of Cancers” (iTeos Belgium SA, priority 2022, published 2026).
